# Results as given in ChEMBL document CHEMBL1201862, “PubChem BioAssay data set” (2004).
# The source made the active and inactive calls.
# Legend:
# [1] = target: FAD-linked sulfhydryl oxidase ALR (Homo sapiens, UniProt P55789); experiment: ALR-catalysed DTT oxidation blockers – biochemical, H2O2 detection, luminescence, cherry-pick, dose response (AID 493248)
# [2] = system: Escherichia coli; experiment: microbe, parasite or virus in culture
# [3] = target: Phospholipase A2 (Homo sapiens, UniProt P04054); format: functional;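 note: confirmatory dose-response counterscreen on phospholipase A2, testing hits that came from an ultra-high-throughput screen for ATG4B inhibitors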
# [4] = target: T1, Cysteine protease ATG4B (Homo sapiens, UniProt Q9Y4P1); format: functional;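 note: Fluorescence-based dose-response confirmation assay measuring inhibition of ATG4B activity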
# T1 sequence (Q9Y4P1 whole entry): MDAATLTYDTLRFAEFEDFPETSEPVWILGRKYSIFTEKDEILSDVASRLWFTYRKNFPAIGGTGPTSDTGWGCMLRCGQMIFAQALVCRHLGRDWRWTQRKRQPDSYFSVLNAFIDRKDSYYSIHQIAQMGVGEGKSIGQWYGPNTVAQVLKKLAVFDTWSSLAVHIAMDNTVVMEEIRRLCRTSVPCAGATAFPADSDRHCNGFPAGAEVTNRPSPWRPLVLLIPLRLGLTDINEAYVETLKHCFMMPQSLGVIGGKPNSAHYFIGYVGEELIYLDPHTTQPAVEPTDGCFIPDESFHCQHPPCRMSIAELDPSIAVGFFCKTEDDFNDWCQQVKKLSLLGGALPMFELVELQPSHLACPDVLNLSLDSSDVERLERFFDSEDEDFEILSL
# [5] = system: Streptococcus; experiment: GAS UMAA2166 growth inhibition – luminescence, BacTiterGlo, counter-screen for streptokinase expression inhibitor project, dose response (AID 1915); format: functional, organism-based;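 note: potency for reduction of bacterial viability or growth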
# [6] = system: Streptococcus sp. 'group A'; experiment: Streptococcus pyogenes SK(-)GAS viability under kanamycin – luminescence, BacTiterGlo, confirmation, counter-screen for streptokinase expression inhibitor project, dose response (AID 1900); format: functional, organism-based
# [7] = target: 72 kDa type IV collagenase (Homo sapiens, UniProt P08253); experiment: Dose Response validation of uHTS RPN11 inhibitor hits using a MMP-2 Fluorescence assay.; format: functional
# [8] = target: 26S proteasome non-ATPase regulatory subunit 14 (Homo sapiens, UniProt O00487); experiment: inhibition of proteasome subunit RPN11 – biochemical, fluorescence polarization, uHTS hits, confirmation (AID 602368); format: functional
# [9] = target: Prothrombin (Bos taurus, UniProt P00735); experiment: thrombin protease inhibitors – biochemical, fluorescence polarization, uHTS hits, dose response (AID 602369); format: functional
# [10] = target: Glyceraldehyde-3-phosphate dehydrogenase (Homo sapiens, UniProt P04406)
# [11] = target: T2, Tyrosine-protein phosphatase non-receptor type 7 (Homo sapiens, UniProt P35236); format: functional
# T2 sequence (P35236 whole entry): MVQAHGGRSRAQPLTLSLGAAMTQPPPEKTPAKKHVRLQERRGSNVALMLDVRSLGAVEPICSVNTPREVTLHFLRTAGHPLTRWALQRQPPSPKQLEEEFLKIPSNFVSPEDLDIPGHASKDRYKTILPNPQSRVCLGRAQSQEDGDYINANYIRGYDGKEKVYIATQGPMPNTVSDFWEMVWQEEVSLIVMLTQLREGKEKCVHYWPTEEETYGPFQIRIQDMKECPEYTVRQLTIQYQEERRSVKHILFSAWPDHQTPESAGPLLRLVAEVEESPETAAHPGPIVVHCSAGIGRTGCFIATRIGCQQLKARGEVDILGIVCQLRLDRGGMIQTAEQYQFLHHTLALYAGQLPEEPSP
# [12] = target: T3, Dual specificity protein phosphatase 6 (Rattus norvegicus, UniProt Q64346); format: functional
# T3 sequence (Q64346 whole entry): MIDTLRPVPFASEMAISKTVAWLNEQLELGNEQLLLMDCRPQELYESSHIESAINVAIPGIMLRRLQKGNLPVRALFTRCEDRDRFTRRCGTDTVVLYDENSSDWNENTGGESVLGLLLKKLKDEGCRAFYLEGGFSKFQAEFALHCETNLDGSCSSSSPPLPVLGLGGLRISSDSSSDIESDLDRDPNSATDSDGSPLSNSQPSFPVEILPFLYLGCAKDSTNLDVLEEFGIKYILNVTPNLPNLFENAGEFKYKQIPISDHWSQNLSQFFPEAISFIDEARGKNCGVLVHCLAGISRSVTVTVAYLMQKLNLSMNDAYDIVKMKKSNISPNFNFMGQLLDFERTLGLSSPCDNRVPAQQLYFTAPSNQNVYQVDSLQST
# [13] = target: T3, Dual specificity protein phosphatase 6
# [14] = target: T4, Carboxy-terminal domain RNA polymerase II polypeptide A small phosphatase 1 (Homo sapiens, UniProt Q9GZU7); experiment: CTDSP1 inhibitors, concentration-response, biochemical, absorbance readout, ultra-high-throughput screen actives (AID 540297); format: functional
# T4 sequence (Q9GZU7 whole entry): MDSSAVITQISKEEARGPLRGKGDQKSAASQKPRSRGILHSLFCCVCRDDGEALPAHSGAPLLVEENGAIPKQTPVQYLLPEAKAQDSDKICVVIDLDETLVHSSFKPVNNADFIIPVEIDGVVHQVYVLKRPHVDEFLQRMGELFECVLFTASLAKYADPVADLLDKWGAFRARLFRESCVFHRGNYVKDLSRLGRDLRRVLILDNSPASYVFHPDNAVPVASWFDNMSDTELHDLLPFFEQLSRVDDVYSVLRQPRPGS
# [15] = target: Heat shock cognate 71 kDa protein (Homo sapiens, UniProt P11142); experiment: In Vitro Hsc70 Dose Response Fluorescence Polarization Assay. [Related pubchem assays: 1072 ]
# [16] = target: T3, Dual specificity protein phosphatase 6; experiment: inhibition of rat DUSP6 enzyme activity – biochemical, in vitro, primary screen (AID 425)
# [17] = target: Heat shock 70 kDa protein 1A (Homo sapiens, UniProt P0DMV8); experiment: inhibition of Hsp70 binding activity – biochemical, fluorescence polarization, SAR follow-up (AID 1072)
# [18] = target: Voltage-dependent T-type calcium channel subunit alpha-1H (Homo sapiens, UniProt O95180); format: functional;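 note: channel activity triggered by adding a high calcium stimulation buffer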
# [19] = target: Cytochrome P450 2D6 (Homo sapiens, UniProt P10635);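 note: CYP2D6 member of a cytochrome P450 panel assay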
# [20] = target: Dual specificity tyrosine-phosphorylation-regulated kinase 1A (Rattus norvegicus, UniProt Q63470); format: biochemical, Homo sapiens
# Chain of Phospholipase A2 (P04054 whole entry): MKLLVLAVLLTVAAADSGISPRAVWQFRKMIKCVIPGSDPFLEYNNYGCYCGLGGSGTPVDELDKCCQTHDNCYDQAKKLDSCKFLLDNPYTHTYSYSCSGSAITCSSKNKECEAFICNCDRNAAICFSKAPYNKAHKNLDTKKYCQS
# Chain of Glyceraldehyde-3-phosphate dehydrogenase (P04406 whole entry): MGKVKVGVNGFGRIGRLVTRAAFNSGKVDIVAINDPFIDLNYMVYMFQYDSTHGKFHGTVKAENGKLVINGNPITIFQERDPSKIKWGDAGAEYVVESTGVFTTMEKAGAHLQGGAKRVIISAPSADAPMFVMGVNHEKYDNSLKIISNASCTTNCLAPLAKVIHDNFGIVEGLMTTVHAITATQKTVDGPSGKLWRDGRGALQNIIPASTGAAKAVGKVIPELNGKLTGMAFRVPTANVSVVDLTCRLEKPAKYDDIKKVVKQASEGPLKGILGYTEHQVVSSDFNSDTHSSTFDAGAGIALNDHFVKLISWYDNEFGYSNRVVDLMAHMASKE
# Chain of Heat shock 70 kDa protein 1A (P0DMV8 whole entry): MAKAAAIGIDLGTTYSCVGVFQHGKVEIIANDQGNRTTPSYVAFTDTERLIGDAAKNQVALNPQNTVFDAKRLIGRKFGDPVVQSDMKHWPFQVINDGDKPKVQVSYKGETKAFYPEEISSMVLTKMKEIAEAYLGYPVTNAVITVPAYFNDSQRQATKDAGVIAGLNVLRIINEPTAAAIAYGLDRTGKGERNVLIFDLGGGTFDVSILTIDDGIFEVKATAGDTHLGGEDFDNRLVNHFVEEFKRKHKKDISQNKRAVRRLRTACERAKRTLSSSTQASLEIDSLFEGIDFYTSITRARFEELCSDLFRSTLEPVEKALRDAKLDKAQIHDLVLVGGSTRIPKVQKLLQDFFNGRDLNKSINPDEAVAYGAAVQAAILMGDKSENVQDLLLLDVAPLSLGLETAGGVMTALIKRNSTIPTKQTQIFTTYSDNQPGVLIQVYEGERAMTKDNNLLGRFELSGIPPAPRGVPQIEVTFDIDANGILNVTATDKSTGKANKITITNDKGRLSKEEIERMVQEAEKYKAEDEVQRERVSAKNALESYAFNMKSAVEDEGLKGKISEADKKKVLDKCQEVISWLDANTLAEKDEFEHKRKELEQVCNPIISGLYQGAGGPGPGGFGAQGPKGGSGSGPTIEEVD
# Chain of Heat shock cognate 71 kDa protein (P11142 whole entry): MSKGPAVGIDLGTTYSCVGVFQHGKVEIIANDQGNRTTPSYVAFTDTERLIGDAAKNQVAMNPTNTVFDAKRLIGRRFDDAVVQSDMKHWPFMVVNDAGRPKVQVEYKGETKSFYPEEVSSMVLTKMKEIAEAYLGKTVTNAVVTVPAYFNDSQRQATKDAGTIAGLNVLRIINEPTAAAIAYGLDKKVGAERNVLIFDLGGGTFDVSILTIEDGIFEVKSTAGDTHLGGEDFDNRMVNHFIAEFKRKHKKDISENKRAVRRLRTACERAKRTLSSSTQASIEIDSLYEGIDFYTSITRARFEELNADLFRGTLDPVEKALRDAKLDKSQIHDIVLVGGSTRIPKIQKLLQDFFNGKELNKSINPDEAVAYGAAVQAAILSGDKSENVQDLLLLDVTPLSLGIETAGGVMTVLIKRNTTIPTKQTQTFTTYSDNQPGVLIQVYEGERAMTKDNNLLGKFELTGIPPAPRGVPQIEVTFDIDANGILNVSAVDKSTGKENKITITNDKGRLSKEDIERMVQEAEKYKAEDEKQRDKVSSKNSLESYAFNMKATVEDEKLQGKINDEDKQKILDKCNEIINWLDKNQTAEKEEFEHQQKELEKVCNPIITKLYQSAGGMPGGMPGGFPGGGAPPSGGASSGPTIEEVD
# Chain of Cytochrome P450 2D6 (P10635 whole entry): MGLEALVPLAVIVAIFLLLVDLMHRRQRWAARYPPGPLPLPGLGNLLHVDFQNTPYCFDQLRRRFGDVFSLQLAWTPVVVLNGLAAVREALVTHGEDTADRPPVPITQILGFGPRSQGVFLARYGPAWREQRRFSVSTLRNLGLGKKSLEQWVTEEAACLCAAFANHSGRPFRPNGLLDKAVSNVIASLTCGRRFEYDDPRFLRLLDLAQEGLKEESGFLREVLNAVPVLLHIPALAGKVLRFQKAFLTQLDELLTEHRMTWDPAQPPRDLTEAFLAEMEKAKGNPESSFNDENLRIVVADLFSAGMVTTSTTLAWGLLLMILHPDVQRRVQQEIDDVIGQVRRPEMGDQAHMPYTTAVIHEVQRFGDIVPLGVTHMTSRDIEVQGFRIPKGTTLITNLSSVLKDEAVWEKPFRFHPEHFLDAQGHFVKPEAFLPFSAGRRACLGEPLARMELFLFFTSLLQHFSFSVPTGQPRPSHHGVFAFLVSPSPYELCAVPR
# Chain of FAD-linked sulfhydryl oxidase ALR (P55789 whole entry): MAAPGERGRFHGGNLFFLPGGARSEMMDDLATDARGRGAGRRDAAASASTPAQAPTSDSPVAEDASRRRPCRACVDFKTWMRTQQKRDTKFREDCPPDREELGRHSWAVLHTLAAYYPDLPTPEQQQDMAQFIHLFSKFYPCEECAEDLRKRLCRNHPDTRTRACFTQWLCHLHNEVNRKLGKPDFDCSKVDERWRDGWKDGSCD
# Chain of 72 kDa type IV collagenase (P08253 whole entry): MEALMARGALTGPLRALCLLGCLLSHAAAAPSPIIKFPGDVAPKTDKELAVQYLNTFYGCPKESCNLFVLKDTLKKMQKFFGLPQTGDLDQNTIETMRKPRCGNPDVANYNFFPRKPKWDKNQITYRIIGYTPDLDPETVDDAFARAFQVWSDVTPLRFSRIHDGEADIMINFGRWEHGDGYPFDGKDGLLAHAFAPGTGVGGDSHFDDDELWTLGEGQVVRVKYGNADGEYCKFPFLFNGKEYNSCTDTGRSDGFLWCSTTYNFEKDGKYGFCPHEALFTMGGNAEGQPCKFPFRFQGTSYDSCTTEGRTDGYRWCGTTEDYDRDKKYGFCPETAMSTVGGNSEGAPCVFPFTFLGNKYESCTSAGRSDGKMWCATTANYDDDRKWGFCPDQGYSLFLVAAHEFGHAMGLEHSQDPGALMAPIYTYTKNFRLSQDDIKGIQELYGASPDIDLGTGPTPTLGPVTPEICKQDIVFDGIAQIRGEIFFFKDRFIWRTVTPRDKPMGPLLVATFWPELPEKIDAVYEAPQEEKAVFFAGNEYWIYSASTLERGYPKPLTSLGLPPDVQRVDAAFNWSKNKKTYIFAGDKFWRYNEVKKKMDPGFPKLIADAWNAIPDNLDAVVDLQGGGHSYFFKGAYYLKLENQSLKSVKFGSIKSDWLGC
# Chain of 26S proteasome non-ATPase regulatory subunit 14 (O00487 whole entry): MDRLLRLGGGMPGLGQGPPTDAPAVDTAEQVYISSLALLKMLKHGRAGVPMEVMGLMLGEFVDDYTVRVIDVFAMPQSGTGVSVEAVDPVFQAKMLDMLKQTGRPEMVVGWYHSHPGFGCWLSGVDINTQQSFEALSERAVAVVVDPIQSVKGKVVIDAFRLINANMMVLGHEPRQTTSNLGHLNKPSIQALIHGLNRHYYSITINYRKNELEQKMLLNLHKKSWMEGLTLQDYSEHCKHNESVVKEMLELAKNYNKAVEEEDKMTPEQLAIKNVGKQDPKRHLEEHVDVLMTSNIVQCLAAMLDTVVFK
Compound,AC50 [2],IC50 [3],IC50 [4],IC50 [10],IC50 [11],IC50 [12],IC50 [13],other results
O=C(c1cc(O)c(O)c([N+](=O)[O-])c1)c1ccccc1F,95 µM (active),–,–,–,–,–,–,AC50 [1]: 3.2 µM (active)
Cc1cc(NCc2ccc(F)cc2Cl)n2nnnc2n1,–,12.1 µM (active),15.7 µM (active),–,–,–,–,–
Oc1nc(Nc2ccc(Cl)cc2Cl)sc1/C=C1\C=Nc2ccccc21,–,1.5 µM (active),2.64 µM (active),–,–,–,–,EC50 [5]: 2.61 µM (active); EC50 [6]: 1.27 µM (active); IC50 [7]: > 100 µM (inactive); IC50 [8]: 36.5 µM (active); IC50 [9]: 38.3 µM (active)
CCOC(=O)C1Nc2c(O)cc(C)cc2C2C=CCC12 (stereo unspecified),–,–,–,> 100 µM (not active),> 100 µM (not active),> 100 µM (inactive),> 100 µM (inactive),–
O=C(CSc1nnc2scc(-c3ccccc3)n12)Nc1nsc(-c2ccccc2)n1,–,–,–,27.4 µM (active),12.8 µM (active),9.41 µM (active),6.9 µM (active),IC50 [14]: 6.59 µM (active); IC50 [15]: > 100 µM (not active); IC50 [16]: 11 µM (active); IC50 [17]: > 100 µM (not active)
O=C(Oc1ccc(-c2ccccc2)cc1)c1cccc2c1NC(C(=O)O)C1CC=CC21 (stereo unspecified),–,–,–,> 100 µM (not active),5.62 µM (active),3.5 µM (active),3.4 µM (active),IC50 [15]: > 100 µM (not active); IC50 [17]: > 100 µM (not active)
Cc1ccccc1NC(=O)/C(=C/c1ccccc1)c1ccccc1,–,9.58 µM (active),10.8 µM (active),–,–,–,–,EC50 [18]: 9.09 µM (active); AC50 [19]: 14.1 µM (inconclusive)
COc1ccccc1C1CCN(c2cc(O)ccc2[N+](=O)[O-])CC1,–,–,–,–,–,–,–,AC50 [20]: 4.38 µM (active)
CN(c1ccccc1)S(=O)(=O)c1cccc(NC(=O)CN2C(=O)NC3(CCCC3)C2=O)c1,40.1 µM (active),–,–,–,–,–,–,–
Cc1cc(C)nc(SC(C)C(=O)N/N=C/c2cccs2)n1 (stereo unspecified),22.1 µM (active),–,–,–,–,–,–,–
